Test system: Bovine lens lysates
Test: Prevention of UVC/H2O2-induced aggregation (opacification) of bovine lens extracts
Format: biochemical
Details: bovine lens lysates 2 mg/ml, various concentrations of compound, UV-irradiated, vs vehicle 0.5% DMSO
Description: Bovine lens lysates (2 mg/ml, 50 μl) were incubated with various concentrations of CAP1160 (structure shown below) or a vehicle (0.5% DMSO), and then left unexposed (no exposure) or exposed to UV (UV-irradiated). At various time points, wells-containing bovine lens lysates were pictured and the corresponding absorbance at 600 nm (A600) was measured. Representative brightfield images of wells taken 7 min after initial UV exposure (FIG. 1A) and corresponding A600 (FIG. 1B).

`Cc1ccc(C(=O)c2cc(O)c(O)c([N+](=O)[O-])c2)cc1` [CAP1160] was tested. Which “opacification of bovine lens protein lysates induced by UV irradiation (absorbance at 600 nm, brightfield images)” value did it give?
The value was “delays, in a dose-dependent manner, the opacification”.

Source: patent publication US20240327439A1, “PHARMACOLOGICAL AGENTS FOR PREVENTING AND TREATING CATARACTS AND PRESBYOPIA EYE DISEASES” (Plex Pharmaceuticals, Inc., priority 2021, published 2024)
